For 30 molecules, IC50 results are on record in patent US8071768B2, “Alkylquinoline and alkylquinazoline kinase modulators” (Janssen Pharmaceutica, N.V., priority 2005, dated 2011).

By IC50 is commonly meant the concentration that inhibits the measured activity by half. A high value points to weaker potency in that assay.

In this assay the target is T1, TrkB (Homo sapiens, UniProt Q16620).
T1 construct: purchased Upstate 14-507M
T1 sequence (Q16620 32-822): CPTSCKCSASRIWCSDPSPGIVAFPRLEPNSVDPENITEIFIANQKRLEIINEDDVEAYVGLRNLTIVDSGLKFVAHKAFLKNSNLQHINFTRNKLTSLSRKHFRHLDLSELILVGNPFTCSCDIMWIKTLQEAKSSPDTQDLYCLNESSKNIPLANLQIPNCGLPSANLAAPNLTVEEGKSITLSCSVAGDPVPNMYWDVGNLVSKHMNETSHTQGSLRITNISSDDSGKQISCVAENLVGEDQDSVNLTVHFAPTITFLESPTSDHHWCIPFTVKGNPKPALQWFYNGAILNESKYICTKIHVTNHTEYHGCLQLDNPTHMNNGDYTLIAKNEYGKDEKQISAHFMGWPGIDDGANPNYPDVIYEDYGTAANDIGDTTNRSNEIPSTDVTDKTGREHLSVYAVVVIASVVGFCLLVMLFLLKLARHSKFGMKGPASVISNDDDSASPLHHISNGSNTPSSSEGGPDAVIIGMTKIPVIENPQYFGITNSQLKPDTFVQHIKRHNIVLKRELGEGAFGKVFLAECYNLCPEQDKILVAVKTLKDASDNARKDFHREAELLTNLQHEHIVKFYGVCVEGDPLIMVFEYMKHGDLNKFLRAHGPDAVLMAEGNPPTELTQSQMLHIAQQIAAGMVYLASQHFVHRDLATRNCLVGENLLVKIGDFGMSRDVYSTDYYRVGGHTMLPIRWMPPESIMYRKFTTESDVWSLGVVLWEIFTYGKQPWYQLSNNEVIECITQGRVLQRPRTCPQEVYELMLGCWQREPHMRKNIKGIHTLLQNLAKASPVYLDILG
As to the kind of experiment: Trk B Fluorescence Polarization Kinase Assay. In kind it is biochemical. The note with it: uncertainty ±10%. As for the experimental part: Trk B Fluorescence Polarization Kinase Assay (TrkB IC50 Data)
The compounds of the present invention are also specific inhibitors of TrkB. Selection of preferred compounds of Formula I for use as TrkB inhibitors was performed in the following manner. The TrkB assay utilized the fluorescein-labeled phosphopeptide and the anti-phosphotyrosine antibody included in the Panvera Phospho-Tyrosine Kinase Kit (Green) supplied by Invitrogen. When TrkB phosphorylated poly Glu4Tyr, the fluorescein-labeled phosphopeptide was displaced from the anti-phosphotyrosine antibody by the phosphorylated poly Glu4Tyr, thus decreasing the FP value. The TrkB kinase reaction was incubated at room temperature for 30 minutes under the following conditions: 50 nM TrkB (Upstate, catalog # 14-507M), 20 ug/mL poly Glu4Tyr, 150 uM ATP, 5 mM MgCl2, 1% compound in DMSO. The kinase reaction was stopped with the addition of EDTA. The fluorescein-labeled phosphopeptide and the anti-phosphotyrosine antibody were added and incubated for 30 minutes at room temperature. Data points were an average of triplicate samples. Inhibition and IC50 data analysis were done with GraphPad Prism using a non-linear regression fit with a multiparamater, sigmoidal dose-response (variable slope) equation.
Background: In fluorescence polarisation assays a small probe gives low polarisation when free and higher when bound to something large.
Take `CC(C)Oc1ccc(NC(=O)N2CCC(c3ncnc4cc(N(C)C)ccc34)CC2)cc1` [Compound 100, 4-(7-Dimethylamino-quinazolin-4-yl)-piperidine-1-carboxylic acid (4-isopropoxy-phenyl)-amide]: the IC50 turned out to be 0.1 µM.

Turning to `COc1cc2ncnc(C3CCN(C(=O)Nc4ccc(I)cc4)CC3)c2cc1OC` [Compound 2, 4-(6,7-Dimethoxy-quinazolin-4-yl)-piperidine-1-carboxylic acid (4-iodo-phenyl)-amide], half-maximal inhibition (IC50) was put at 6.2 µM.

As to `COc1cc2ncnc(C3CCN(C(=O)Nc4ccc(NC(C)=O)cc4)CC3)c2cc1OC` [Compound 25, 4-(6,7-Dimethoxy-quinazolin-4-yl)-piperidine-1-carboxylic acid (4-acetylamino-phenyl)-amide], the IC50 is more than 42 µM.

For the molecule `O=C(Nc1ccc(N2CCOCC2)nc1)N1CCC(c2ncnc3cc(OCCCn4cnnc4)ccc23)CC1` [Compound 110, 4-[7-(3-[1,2,4]Triazol-4-yl-propoxy)-quinazolin-4-yl]-piperidine-1-carboxylic acid (6-morpholin-4-yl-pyridin-3-yl)-amide], half-maximal inhibition (IC50) was put at 15 µM.

The molecule `CN1CCN(c2ccc3c(C4CCN(C(=O)Nc5ccc(N6CCCC6)cc5)CC4)ncnc3c2)CC1` [Compound 159, 4-[7-(4-Methyl-piperazin-1-yl)-quinazolin-4-yl]-piperidine-1-carboxylic acid (4-pyrrolidin-1-yl-phenyl)-amide] returned a concentration for half-maximal inhibition (IC50) of 7.86 µM.

Molecule `O=C(Nc1ccc(N2CCOCC2)cc1)N1CCC(c2ncnc3cc(OCCCN4CCNCC4)ccc23)CC1` [Compound 123, 4-[7-(3-piperazin-1-yl-propoxy)-quinazolin-4-yl]-piperidine-1-carboxylic acid (4-morpholin-4-yl-phenyl)-amide] gave an IC50 of more than 20 µM.

For the molecule `CCN(CC)CCCOc1ccc2c(C3CCN(C(=O)Nc4ccc(N5CCOCC5)cc4)CC3)ncnc2c1` [Compound 134, 4-[7-(3-Diethylamino-propoxy)-quinazolin-4-yl]-piperidine-1-carboxylic acid (4-morpholin-4-yl-phenyl)-amide], the 50% inhibitory concentration (IC50) is more than 42 µM.

`CN1CCC(COc2ccc3c(C4CCN(C(=O)Nc5ccc(N6CCCC6)cc5)CC4)ncnc3c2)CC1` [Compound 109, 4-[7-(1-Methyl-piperidin-4-ylmethoxy)-quinazolin-4-yl]-piperidine-1-carboxylic acid (4-pyrrolidin-1-yl-phenyl)-amide] had an IC50 of 8.9 µM. That is a single-digit micromolar value.

Turning to `O=C(Nc1ccc(N2CCOCC2)cc1)N1CCC(c2ncnc3cc(OCCN4CCC[C@H]4CO)ccc23)CC1` [Compound 153, (S)-4-{7-[2-(2-Hydroxymethyl-pyrrolidin-1-yl)-ethoxy]-quinazolin-4-yl}-piperidine-1-carboxylic acid (4-morpholin-4-yl-phenyl)-amide], the IC50 was more than 42 µM.

For the molecule `O=C(Nc1ccc(N2CCOCC2)cc1)N1CCC(c2ncnc3cc(OCCCO)ccc23)CC1` [Compound 77, 4-[7-(3-Hydroxy-propoxy)-quinazolin-4-yl]-piperidine-1-carboxylic acid (4-morpholin-4-yl-phenyl)-amide], the IC50 is more than 20 µM.

`O=C(Nc1ccc(N2CCCC2)cc1)N1CCC(c2ncnc3cc(OCCN4CCOC4=O)ccc23)CC1` [Compound 147, 4-{7-[2-(2-Oxo-oxazolidin-3-yl)-ethoxy]-quinazolin-4-yl}-piperidine-1-carboxylic acid (4-pyrrolidin-1-yl-phenyl)-amide] had an IC50 of 2.73 µM.

In turn, `CC(C)Oc1ccc(NC(=O)N2CCC(c3ncnc4cc(OCCCN5CCOCC5)ccc34)CC2)cc1` [Compound 38] displayed a 50% inhibitory concentration (IC50) of 0.1 µM. Against the preceding molecule, the IC50 is about 27-fold lower.

On to `COc1cc2ncnc(C3CCN(C(=O)Nc4ccc(-c5cncnc5)cc4)CC3)c2cc1OC` [Compound 58, 4-(6,7-Dimethoxy-quinazolin-4-yl)-piperidine-1-carboxylic acid (4-pyrimidin-5-yl-phenyl)-amide], for which the IC50 is more than 42 µM.

For the molecule `COc1cc2ncnc(C3CCN(C(=O)Nc4ccc(C5CCN(C(=O)OC(C)(C)C)CC5)cc4)CC3)c2cc1OC` [Compound 63, 4-(4-{[4-(6,7-Dimethoxy-quinazolin-4-yl)-piperidine-1-carbonyl]-amino}-phenyl)-piperidine-1-carboxylic acid tert-butyl ester], the half-inhibitory concentration (IC50) was more than 42 µM.

For the molecule `CN(C)c1c(NCCCOc2ccc3c(C4CCN(C(=O)Nc5ccc(N6CCCC6)nc5)CC4)ncnc3c2)c(=O)c1=O` [Compound 111, 4-{7-[3-(2-Dimethylamino-3,4-dioxo-cyclobut-1-enylamino)-propoxy]-quinazolin-4-yl}-piperidine-1-carboxylic acid (6-pyrrolidin-1-yl-pyridin-3-yl)-amide], the IC50 was more than 20 µM.

Regarding `CN1CCC(COc2ccc3c(C4CCN(C(=O)Nc5ccc(N6CCCC6)nc5)CC4)ncnc3c2)CC1` [Compound 99, 4-[7-(1-Methyl-piperidin-4-ylmethoxy)-quinazolin-4-yl]-piperidine-1-carboxylic acid (6-pyrrolidin-1-yl-pyridin-3-yl)-amide], the IC50 worked out at 6.41 µM. This lies in the single-digit micromolar range.

With `COc1cc2ncnc(C3CCN(C(=O)Nc4ccccc4)CC3)c2cc1OC` [Compound 45, 4-(6,7-Dimethoxy-quinazolin-4-yl)-piperidine-1-carboxylic acid phenylamide], the IC50 came out at 6.5 µM. The IC50 values of the last two molecules are within 1.5-fold of each other.

As for `CC(C)Oc1ccc(NC(=O)N2CCC(c3ncnc4cc(OCCCN5CCCCC5)ccc34)CC2)cc1` [Compound 33, 4-(7-(3-Piperidin-1-yl-propoxy)-quinazolin-4-yl)-piperidine-1-carboxylic acid (4-isopropoxy-phenyl)-amide], half-maximal inhibition (IC50) was put at 0.9 µM.

`COc1cc2ncnc(C3CCN(C(=O)Nc4ccc(OC5CCCC5)nc4)CC3)c2cc1OC` [Compound 69, 4-(6,7-Dimethoxy-quinazolin-4-yl)-piperidine-1-carboxylic acid (6-cyclopentyloxy-pyridin-3-yl)-amide] displayed an IC50 of 0.15 µM.

As to `CN1CCN(CCCOc2ccc3c(C4CCN(C(=S)Nc5ccc(N6CCOCC6)nc5)CC4)ncnc3c2)CC1` [Compound 106, 4-{7-[3-(4-Methyl-piperazin-1-yl)-propoxy]-quinazolin-4-yl}-piperidine-1-carbothioic acid (6-morpholin-4-yl-pyridin-3-yl)-amide], the IC50 amounted to 16.3 µM. Against the preceding molecule, the IC50 is about 110-fold higher.

As for `CN1CCN(CCCOc2ccc3c(C4CCN(C(=O)Nc5ccc(N6CCOCC6)c(F)c5)CC4)ncnc3c2)CC1` [Compound 81, 4-{7-[3-(4-Methyl-piperazin-1-yl)-propoxy]-quinazolin-4-yl}-piperidine-1-carboxylic acid (3-fluoro-4-morpholin-4-yl-phenyl)-amide], the IC50 was more than 20 µM.

As for `CCN1CCN(CCCOc2ccc3c(C4CCN(C(=O)Nc5ccc(N6CCOCC6)cc5)CC4)ncnc3c2)CC1` [Compound 115, 4-{7-[3-(4-Ethyl-piperazin-1-yl)-propoxy]-quinazolin-4-yl}-piperidine-1-carboxylic acid (4-morpholin-4-yl-phenyl)-amide], the IC50 is more than 20 µM.

`CC(C)Oc1ccc(NC(=O)N2CCC(c3ncnc4ccc(I)cc34)CC2)cc1` [Compound 11, 4-(6-Iodo-quinazolin-4-yl)-piperidine-1-carboxylic acid (4-isopropoxy-phenyl)-amide] showed an IC50 of 0.2 µM.

As to `COc1cc2ncnc(C3CCN(C(=O)Nc4ccc(C5CCNCC5)cc4)CC3)c2cc1OC` [Compound 64, 4-(6,7-Dimethoxy-quinazolin-4-yl)-piperidine-1-carboxylic acid (4-piperidin-4-yl-phenyl)-amide], the IC50 was 37.8 µM.

Regarding `CS(=O)(=O)NCCCOc1ccc2c(C3CCN(C(=O)Nc4ccc(N5CCOCC5)nc4)CC3)ncnc2c1` [Compound 87, 4-[7-(3-Methanesulfonylamino-propoxy)-quinazolin-4-yl]-piperidine-1-carboxylic acid (6-morpholin-4-yl-pyridin-3-yl)-amide], the IC50 worked out at 7.2 µM.

The molecule `CN1CCN(c2ccc3c(C4CCN(C(=O)Nc5ccc(N6CCOCC6)cc5)CC4)ncnc3c2)CC1` [Compound 135, 4-[7-(4-Methyl-piperazin-1-yl)-quinazolin-4-yl]-piperidine-1-carboxylic acid (4-morpholin-4-yl-phenyl)-amide] gave an IC50 of more than 42 µM.

Take `O=C(Nc1ccc(N2CCOCC2)cc1)N1CCC(c2ncnc3cc(N4CC[C@@H](O)C4)ccc23)CC1` [Compound 126, (R)-4-[7-(3-Hydroxy-pyrrolidin-1-yl)-quinazolin-4-yl]-piperidine-1-carboxylic acid (4-morpholin-4-yl-phenyl)-amide]: inhibition was half-maximal at 10.2 µM (IC50). In other words, the double-digit micromolar range.

Regarding `COc1cc2ncnc(C3CCN(C(=O)Nc4ccc(N5CCCCC5)cc4)CC3)c2cc1OC` [Compound 19, 4-(6,7-Dimethoxy-quinazolin-4-yl)-piperidine-1-carboxylic acid (4-piperidin-1-yl-phenyl)-amide], the IC50 was determined as 2.7 µM.

`CN1CCN(CCCOc2ccc3c(C4CCN(C(=O)Nc5ccc(OC6CCCC6)nc5)CC4)ncnc3c2)CC1` [Compound 82, 4-{7-[3-(4-Methyl-piperazin-1-yl)-propoxy]-quinazolin-4-yl}-piperidine-1-carboxylic acid (6-cyclopentyloxy-pyridin-3-yl)-amide] gave an IC50 of 0.4 µM.

The molecule `COc1cc2ncnc(C3CCN(C(=O)Nc4ccc(-c5ccc(Cl)nc5)cc4)CC3)c2cc1OC` [Compound 60, 4-(6,7-Dimethoxy-quinazolin-4-yl)-piperidine-1-carboxylic acid [4-(6-chloro-pyridin-3-yl)-phenyl]-amide] returned a 50% inhibitory concentration (IC50) of 8.1 µM. This IC50 is about 20-fold higher than that of the molecule before.
